Measurements as given in patent US11091749B2, “Deimmunized lysostaphin and methods of use” (TRUSTEES OF DARTMOUTH COLLEGE, priority 2014, dated 2021).

Legend:
pooled splenocytes = assay: Transgenic DR4 murine immunogenicity study (memory response, splenocyte proliferation); format: in vivo; settings: wild-type LST primed mice, 100 μg rechallenge
Method: Twelve female 6-8 week old DR4 transgenic mice (Abb Knockout/Transgenic HLA-DR4; B6.129S2-H2-Ab1tm1GruTg(HLA-DRA/H2-Ea,HLA-DRB1*0401/H2-Eb)1Kito; Taconic Farms, Germantown, N.Y.) were divided into four groups of three each and immunized with 50 μl subcutaneous injections of wild-type LST using one of the following four schemes: (i) initial immunization with 100 μg enzyme in CFA, followed by 100 μg boosts in incomplete Freund's adjuvant (IFA) on days 14 and 28; (ii) initial immunization with 20 μg enzyme in CFA, followed by 20 μg boosts in IFA on days 14 and 28; (iii) initial immunization with 100 μg enzyme in PBS buffer, followed by 100 μg boosts in PBS buffer on days 7, 14, 21 and 28; (iv) initial immunization with 20 μg enzyme in PBS buffer, followed by 20 μg boosts in PBS buffer on days 7, 14, 21 and 28. Serum IgG antibody titers against wild-type LST were measured on days 13, 20, 27, 34, and 62. […] Mice were housed without further manipulation until week 23 of the study, at which time serum IgG antibody titers were again measured and mice were divided into two experimental arms having equivalent average antibody titers. Note that during the week 9 to week 23 recovery period, two mice (the lowest titer 100 μg no adjuvant and one of the high titer 100 μg adjuvant) began suffering hair loss, weight loss, and reduced mobility and were sacrificed as per the IACUC approved protocol. […]

MRSA strain USA400 [1] = assay: Efficacy of F13 in immunized mice, MRSA challenge; format: in vivo, DR4 HLA transgenic mice; settings: 500 μg i.v. 1 h after 2×10^8 MRSA i.p.
Method: The immunogenicity of the F13 variant was compared to wild-type LST in DR4 HLA transgenic mice, i.e., mice bearing partially humanized immune systems. 100 μg of wild-type LST or variant F13 were mixed with complete Freund's adjuvant and injected subcutaneously into DR4 mice. Fourteen days later, antibody titers were measured by ELISA. Variant F13 yielded more than 200-fold lower antibody titers compared to wild-type LST. To assess the impact of antibody titers on antibacterial efficacy, the mice were challenged with an intraperitoneal injection of 2×10^8 MRSA strain USA400, and 1 hour later the mice were treated with 500 μg wild-type LST, variant F13, or PBS, administered as a single bolus intravenous injection. Both mice receiving PBS sham treatments died as did both mice treated with wild-type LST. In contrast, both mice treated with variant F13 survived. Thus, the reduced immunogenicity of F13 conferred enhanced therapeutic efficacy in vivo.

S. aureus cells = assay: Lytic assay using purified protein (SYTOX kinetic assay); format: cell-based, Staphylococcus aureus
Method: S. aureus cells were grown either to mid-log or to saturation in tryptic soy broth (TSB) at 37° C. with shaking. The cells were harvested by centrifugation and washed once in phosphate buffered saline (PBS: 2.7 mM KCl, 1.5 mM KH2PO4, 8.9 mM Na2HPO4, 136.9 mM NaCl, pH 7.4). The assay was performed in 96-well, black, clear bottom plates from Greiner Bio-One (Monroe, N.C.). The final (250 μl) reaction was composed of 10 μl of P. pastoris culture supernatant, S. aureus cells at OD600=1.5, and 5 μM SYTOX Green (Thermo Fisher Scientific; Waltham, Mass.), all in PBS. Data were collected using SPECTRAMAX GEMINI Fluorescence Microplate Reader (Molecular Devices; Sunnyvale, Calif.) using an excitation/emission of 504/523 nm, and rates were determined from the slope of the steepest linear portion of the trace. Each assay was performed with 500 ng of commercially-sourced lysostaphin (ssLys) as an internal control.
The activity of purified lysostaphin variants was examined using the SYTOX kinetic assay as previously described in Chapter 2, Section 3.2.6. 200 ng of purified enzyme (instead of culture supernatant) was used in each reaction.

S. aureus 6445 = assay: MIC assay; format: cell-based, Staphylococcus aureus; settings: biological duplicates
MRSA strain USA400 [2] = assay: In vivo efficacy of F11, intraperitoneal MRSA challenge; parameters: species or system C57BL/6 mice; settings: 100 μg single bolus i.v. 1 h after 2×10^8 MRSA i.p.
Method: Mice were challenged with an intraperitoneal injection of 2×10^8 MRSA strain USA400, and 1 hour later the mice were treated with 100 μg wild-type LST, F11 or PBS. The percent survival is shown.
The in vivo efficacy of the F11 variant was further analyzed in C57BL/6 mice. Mice were challenged with an intraperitoneal injection of 2×10^8 MRSA strain USA400, and 1 hour later the mice were treated with 100 μg wild-type LST, F11 or PBS, administered as a single bolus intravenous injection. The survival rate for both protein treatments was 1/3. The 100 μg dosage was selected because wild-type LST is known to be only partially efficacious at this dose.

With “Wild-Type: wild-type lysostaphin (SEQ ID NO:49) produced in P. pastoris; aglycosylated Ser126Pro backbone in the design studies [reference compound]” the stimulation index (pooled splenocytes) was 1.8 fold, the survival (MRSA strain USA400 [1]) was “died” and the “% Wild-Type Activity” value (S. aureus cells; 200 ng purified enzyme) was 100%. The “% WT Lytic Rate” value (S. aureus cells; biological duplicates) was 100 ± 30%, the “MIC Strain 6445” value (S. aureus 6445) was 0.03 µg/mL and the survival rate (MRSA strain USA400 [2]) was 1/3.
